According to patent US8084649B2, “Herbicides” (Syngenta Crop Protection, inc., priority 2007, dated 2011):

Key:
Assay type in all cases: in vivo
[1] = tested on: Alopecurus myosuroides (ALOMY); experiment: Pre-emergence herbicidal activity, glasshouse pot test; conditions: rate 500 g/ha, evaluated after 20 days; for pest or weed control at 500 g/ha: Alopecurus myosuroides, 480 h, read-out: Pre-emergence activity, ALOMY (100=total damage to plant; 0=no damage to plant)
Outline: (§1)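 Pre-emergence application: sprayed one day after seeding into pots of sterilised standard soil. After 20 days' growth in a greenhouse, percent damage was scored visually, 0 meaning unharmed and 100 total damage.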

Avena fatua (AVEFA) [2] = experiment: as above; conditions: rate 500 g/ha, evaluated after 20 days; for pest or weed control at 500 g/ha: Avena fatua, 480 h, read-out: Pre-emergence activity, AVEFA (100=total damage to plant; 0=no damage to plant)
Outline: as §1

[3] = tested on: Digitaria sanguinalis (DIGSA); experiment: as above; conditions: rate 500 g/ha, evaluated after 20 days; for pest or weed control at 500 g/ha: Digitaria sanguinalis, 480 h, read-out: Pre-emergence activity, DIGSA (100=total damage to plant; 0=no damage to plant)
Outline: as §1

[4] = tested on: Echinochloa crus-galli (ECHCG); experiment: as above; conditions: rate 500 g/ha, evaluated after 20 days; for pest or weed control at 500 g/ha: Echinochloa crus-galli, 480 h, read-out: Pre-emergence activity, ECHCG (100=total damage to plant; 0=no damage to plant)
Outline: as §1

Lolium perenne (LOLPE) [5] = experiment: as above; conditions: rate 500 g/ha, evaluated after 20 days; for pest or weed control at 500 g/ha: Lolium perenne, 480 h, read-out: Pre-emergence activity, LOLPE (100=total damage to plant; 0=no damage to plant)
Outline: as §1

Setaria faberi (SETFA) [6] = experiment: as above; conditions: rate 500 g/ha, evaluated after 20 days; for pest or weed control at 500 g/ha: Setaria faberi, 480 h, read-out: Pre-emergence activity, SETFA (100=total damage to plant; 0=no damage to plant)
Outline: as §1

[7] = tested on: Alopecurus myosuroides (ALOMY); experiment: Post-emergence herbicidal activity, glasshouse pot test; conditions: rate 500 g/ha, evaluated after 14 or 15 days; for pest or weed control at 500 g/ha: Alopecurus myosuroides, read-out: Post-emergence activity, ALOMY (100=total damage to plant; 0=no damage to plant)
Outline: (§2)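 Foliar application to ten-day-old pot-grown seedlings; formulation: acetone plus solvent/surfactant blend (Emulsogen EL, NMP, DPGME, X-77), diluted in water. Scoring 14/15 d post-spray, 0–100% damage.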

Avena fatua (AVEFA) [8] = experiment: as above; conditions: rate 500 g/ha, evaluated after 14 or 15 days; for pest or weed control at 500 g/ha: Avena fatua, read-out: Post-emergence activity, AVEFA (100=total damage to plant; 0=no damage to plant)
Outline: as §2

[9] = tested on: Digitaria sanguinalis (DIGSA); experiment: as above; conditions: rate 500 g/ha, evaluated after 14 or 15 days; for pest or weed control at 500 g/ha: Digitaria sanguinalis, read-out: Post-emergence activity, DIGSA (100=total damage to plant; 0=no damage to plant)
Outline: as §2

[10] = tested on: Echinochloa crus-galli (ECHCG); experiment: as above; conditions: rate 500 g/ha, evaluated after 14 or 15 days; for pest or weed control at 500 g/ha: Echinochloa crus-galli, read-out: Post-emergence activity, ECHCG (100=total damage to plant; 0=no damage to plant)
Outline: as §2

Lolium perenne (LOLPE) [11] = experiment: as above; conditions: rate 500 g/ha, evaluated after 14 or 15 days; for pest or weed control at 500 g/ha: Lolium perenne, read-out: Post-emergence activity, LOLPE (100=total damage to plant; 0=no damage to plant)
Outline: as §2

Setaria faberi (SETFA) [12] = experiment: as above; conditions: rate 500 g/ha, evaluated after 14 or 15 days; for pest or weed control at 500 g/ha: Setaria faberi, read-out: Post-emergence activity, SETFA (100=total damage to plant; 0=no damage to plant)
Outline: as §2

Row | SMILES | pest or weed control at 500 g/ha [1] | pest or weed control at 500 g/ha (Avena fatua (AVEFA) [2]) | pest or weed control at 500 g/ha [3] | pest or weed control at 500 g/ha [4] | pest or weed control at 500 g/ha (Lolium perenne (LOLPE) [5]) | pest or weed control at 500 g/ha (Setaria faberi (SETFA) [6]) | pest or weed control at 500 g/ha [7] | pest or weed control at 500 g/ha (Avena fatua (AVEFA) [8]) | pest or weed control at 500 g/ha [9] | pest or weed control at 500 g/ha [10] | pest or weed control at 500 g/ha (Lolium perenne (LOLPE) [11]) | pest or weed control at 500 g/ha (Setaria faberi (SETFA) [12]) | other results
1 | CCc1cc(C)cc(CC)c1C1=C(O)CC(CC(C)S(C)(=O)=O)CC1=O (stereo not drawn) [Compound T30] | 80% | 80% | 100% | 100% | 90% | 100% | 70% | 90% | 100% | 100% | 80% | 100% | –
2 | CCc1cc(C)cc(CC)c1C1=C(O)CC(CCS(C)(=O)=O)CC1=O (stereo not drawn) [Compound T31] | – | – | – | – | – | – | – | – | – | – | – | – | Pre-emergence activity, ALOMY (100=total damage to plant; 0=no damage to plant) [1]: 80; Pre-emergence activity, AVEFA (100=total damage to plant; 0=no damage to plant) (Avena fatua (AVEFA) [2]): 80; Pre-emergence activity, DIGSA (100=total damage to plant; 0=no damage to plant) [3]: 100; Pre-emergence activity, ECHCG (100=total damage to plant; 0=no damage to plant) [4]: 100; Pre-emergence activity, LOLPE (100=total damage to plant; 0=no damage to plant) (Lolium perenne (LOLPE) [5]): 100; Pre-emergence activity, SETFA (100=total damage to plant; 0=no damage to plant) (Setaria faberi (SETFA) [6]): 100; Post-emergence activity, ALOMY (100=total damage to plant; 0=no damage to plant) [7]: 80; Post-emergence activity, AVEFA (100=total damage to plant; 0=no damage to plant) (Avena fatua (AVEFA) [8]): 60; Post-emergence activity, DIGSA (100=total damage to plant; 0=no damage to plant) [9]: 100; Post-emergence activity, ECHCG (100=total damage to plant; 0=no damage to plant) [10]: 100; Post-emergence activity, LOLPE (100=total damage to plant; 0=no damage to plant) (Lolium perenne (LOLPE) [11]): 90; Post-emergence activity, SETFA (100=total damage to plant; 0=no damage to plant) (Setaria faberi (SETFA) [12]): 100
3 | CCCSC(C)CC1CC(=O)C(c2c(CC)cc(C)cc2CC)=C(O)C1 (stereo not drawn) [Compound T32] | 90% | 80% | 100% | 100% | 100% | 100% | 80% | 80% | 100% | 100% | 90% | 100% | –
4 | CCCSC(C)CC1CC(=O)C(c2c(C)cc(C)cc2C)=C(O)C1 (stereo not drawn) [Compound T35] | 90% | 80% | 90% | 70% | 80% | 80% | 90% | 70% | 70% | 70% | 80% | 50% | –
5 | CCC[S+]([O-])C(C)CC1CC(=O)C(c2c(CC)cc(C)cc2CC)=C(O)C1 (stereo not drawn) [Compound T37] | 100% | 90% | 100% | 100% | 100% | 100% | 90% | 90% | 80% | 100% | 90% | 50% | –
6 | CCc1cc(C)cc(CC)c1C1=C(O)CC(CC(C)SC(C)C)CC1=O (stereo not drawn) [Compound T38] | 90% | 70% | 70% | 70% | 100% | 60% | 90% | 100% | 70% | 70% | 90% | 80% | –
